Results published in BindingDB's records for doi:10.1016/j.bmcl.2017.05.059 (University of Mysore, 2017).

Test: Inhibition of Vipera russelii venom sPLA2-induced hemolytic activity in human erythrocytes assessed as reduction hemoglobin release in presence of egg yolk preincubated for 5 mins followed by erythrocyte addition by spectrophotometric analysis

## COc1ccc(C2CC(c3ccco3)=Nc3ccccc3S2)cc1 (stereo unspecified)
  IC50: 21.3 µM
